Measurements from US8987195B2 (priority 2012, dated 2015).
pEC50: −log10 of the molar value. Like-named read-outs stand apart in the source and are kept apart here.

What was measured:
[1] = target: HCV NS3/4A protease genotype 1b (Hepatitis C virus genotype 1b, UniProt P26663); assay: HCV NS3/4A protease time-resolved fluorescence (TRF) assay, Ki against genotype 1b; type: biochemical; details: IC50 [gt-1b] (nM), NS3/4A genotype 1b, enzyme 0.2 nM
Method in brief: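 Time-resolved fluorescence readout of NS3/4A cleavage of 25 nM europium-labelled peptide over 2.5 h at room temperature, enzyme levels set for signal/background 10–30 (0.2, 0.4, 0.025 nM for 1b, A156T, 3a). Ki by IC50=Ki(1+[S]/KM).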

[2] = system: HCV genotype 1b replicon; assay: HCV replicon assay, genotype 1b replicon EC50; type: cell-based, Hepatitis C virus; details: Hepatitis C virus, genotype 1b replicon, read-out: EC50 [gt-1b]
Method in brief: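 Stable neomycin-selected genotype 1b replicon cells, some carrying luciferase:Neo^r fusion, plated without G418 with a compound dilution series and incubated 24-48 h. Read-out was RNA (^32P-probe protection or TaqMan, normalized to cyclophilin A) or luciferase activity. EC50 from four-parameter fit as percent of DMSO control.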

| SMILES | IC50 [1] [nM] | pEC50 [2] | IC50 ([1]; K+ salt) [nM] | pEC50 ([2]; K+ salt) | other results |
| --- | --- | --- | --- | --- | --- |
| Cc1nc2ccc(OC(F)F)cc2c2c1O[C@]1(CC2)C[C@H]2C(=O)N[C@]3(C(=O)NS(=O)(=O)C4(C)CC4)C[C@H]3/C=C\CCCCC[C@H](NC(=O)OC(C)(C)C)C(=O)N2C1 [Example 256, tert-butyl [(2R,6S,12Z,13aS,14aR,16aS)-9′-(difluoromethoxy)-5′-methyl-14a-{[(1-methylcyclopropyl)sulfonyl]carbamoyl}-5,16-dioxo-1,1′,2′,5,6,7,8,9,10,11,13a,14,14a,15,16,16a-hexadecahydrospiro[cyclopropa[e]pyrrolo[1,2-a][1,4]diazacyclopentadecine-2,3′-pyrano[2,3-c]quinolin]-6-yl]carbamate] | 0.005 | 8.51 | – | – | – |
| Cc1nc2ccccc2c2c1O[C@]1(CC2)C[C@H]2C(=O)N[C@]3(C(=O)NS(=O)(=O)C4(C)CC4)C[C@H]3/C=C\CCCCC[C@H](NC(=O)OC3C[C@H]4C=C[C@@H]3C4)C(=O)N2C1 (stereo partly drawn) [Example 257, (1S,4S)-bicyclo[2.2.1]hept-5-en-2-yl [(2R,6S,12Z,13aS,14aR,16aS)-5′-methyl-14a-{[(1-methylcyclopropyl)sulfonyl]carbamoyl}-5,16-dioxo-1,1′,2′,5,6,7,8,9,10,11,13a,14,14a,15,16,16a-hexadecahydrospiro[cyclopropa[e]pyrrolo[1,2-a][1,4]diazacyclopentadecine-2,3′-pyrano[2,3-c]quinolin]-6-yl]carbamate] | 0.018 | 8.49 | – | – | – |
| Cc1nc2ccccc2c2c1O[C@]1(CC2)C[C@H]2C(=O)N[C@]3(C(=O)NS(=O)(=O)C4(C)CC4)C[C@H]3/C=C\CCCCC[C@H](NC(=O)OC(C(F)(F)F)C(F)(F)F)C(=O)N2C1 [Example 258, 1,1,1,3,3,3-hexafluoropropan-2-yl [(2R,6S,12Z,13aS,14aR,16aS)-5′-methyl-14a-{[(1-methylcyclopropyl)sulfonyl]carbamoyl}-5,16-dioxo-1,1′,2′,5,6,7,8,9,10,11,13a,14,14a,15,16,16a-hexadecahydrospiro[cyclopropa[e]pyrrolo[1,2-a][1,4]diazacyclopentadecine-2,3′-pyrano[2,3-c]quinolin]-6-yl]carbamate] | 0.022 | 6.14 | – | – | – |
| COc1ccc2nc(C)c3c(c2c1)C(F)(F)C[C@]1(C[C@H]2C(=O)N[C@]4(C(=O)NS(=O)(=O)C5(C)CC5)C[C@H]4/C=C\CCCCC[C@H](NC(=O)OC4CCCC4)C(=O)N2C1)O3 [Example 260, cyclopentyl [(2S,6S,12Z,13aS,14aR,16aS)-1′,1′-difluoro-9′-methoxy-5′-methyl-14a-{[(1-methylcyclopropyl)sulfonyl]carbamoyl}-5,16-dioxo-1,1′,2′,5,6,7,8,9,10,11,13a,14,14a,15,16,16a-hexadecahydrospiro[cyclopropa[e]pyrrolo[1,2-a][1,4]diazacyclopentadecine-2,3′-pyrano[2,3-c]quinolin]-6-yl]carbamate] | 0.006 | 8.28 | – | – | – |
| COc1ccc2nc(C)c3c(c2c1)CC[C@]1(C[C@H]2C(=O)N[C@]4(C(=O)NS(=O)(=O)C5(C)CC5)C[C@H]4/C=C\CCCCC[C@H](NC(=O)OC4CC5CC(=O)OC5C4)C(=O)N2C1)O3 (stereo partly drawn) [Example 261, 2-oxohexahydro-2H-cyclopenta[b]furan-5-yl [(2R,6S,12Z,13aS,14aR,16aS)-9′-methoxy-5′-methyl-14a-{[(1-methylcyclopropyl)sulfonyl]carbamoyl}-5,16-dioxo-1,1′,2′,5,6,7,8,9,10,11,13a,14,14a,15,16,16a-hexadecahydrospiro[cyclopropa[e]pyrrolo[1,2-a][1,4]diazacyclopentadecine-2,3′-pyrano[2,3-c]quinolin]-6-yl]carbamate] | 0.008 | 6.72 | – | – | – |
| COc1ccc2nc(C)c3c(c2c1)C(F)(F)C[C@]1(C[C@H]2C(=O)N[C@]4(C(=O)NS(=O)(=O)C5(C)CC5)C[C@H]4/C=C\CCCCC[C@H](NC(=O)O[C@H](C)C(C)C)C(=O)N2C1)O3 [Example 263, (2R)-3-methylbutan-2-yl [(2S,6S,12Z,13aS,14aR,16aS)-1′,1′-difluoro-9′-methoxy-5′-methyl-14a-{[(1-methylcyclopropyl)sulfonyl]carbamoyl}-5,16-dioxo-1,1′,2′,5,6,7,8,9,10,11,13a,14,14a,15,16,16a-hexadecahydrospiro[cyclopropa[e]pyrrolo[1,2-a][1,4]diazacyclopentadecine-2,3′-pyrano[2,3-c]quinolin]-6-yl]carbamate] | – | – | 0.007 | 8.28 | – |
| COc1ccc2nc(C)c3c(c2c1)C(F)(F)C[C@]1(C[C@H]2C(=O)N[C@]4(C(=O)NS(=O)(=O)C5(C)CC5)C[C@H]4/C=C\CCCCC[C@H](NC(=O)O[C@@H](C)C(C)C)C(=O)N2C1)O3 [Example 264, (2S)-3-methylbutan-2-yl [(2S,6S,12Z,13aS,14aR,16aS)-1′,1′-difluoro-9′-methoxy-5′-methyl-14a-{[(1-methylcyclopropyl)sulfonyl]carbamoyl}-5,16-dioxo-1,1′,2′,5,6,7,8,9,10,11,13a,14,14a,15,16,16a-hexadecahydrospiro[cyclopropa[e]pyrrolo[1,2-a][1,4]diazacyclopentadecine-2,3′-pyrano[2,3-c]quinolin]-6-yl]carbamate] | – | – | 0.013 | 8.37 | – |
| COc1ccc2nc(C)c3c(c2c1)C(F)(F)C[C@]1(C[C@H]2C(=O)N[C@]4(C(=O)NS(=O)(=O)C5(C)CC5)C[C@H]4/C=C\CCCCC[C@H](NC(=O)OC(C)(C)C(F)(F)F)C(=O)N2C1)O3 [Example 265, 1,1,1-trifluoro-2-methylpropan-2-yl [(2S,6S,12Z,13aS,14aR,16aS)-1′,1′-difluoro-9′-methoxy-5′-methyl-14a-{[(1-methylcyclopropyl)sulfonyl]carbamoyl}-5,16-dioxo-1,1′,2′,5,6,7,8,9,10,11,13a,14,14a,15,16,16a-hexadecahydrospiro[cyclopropa[e]pyrrolo[1,2-a][1,4]diazacyclopentadecine-2,3′-pyrano[2,3-c]quinolin]-6-yl]carbamate] | – | – | 0.007 | 8.48 | – |
| Cc1nc2ccc(OC(F)F)cc2c2c1O[C@]1(CC2)C[C@H]2C(=O)N[C@]3(C(=O)NS(=O)(=O)C4(C)CC4)C[C@H]3/C=C\CCCCC[C@H](NC(=O)OCC(C)C)C(=O)N2C1 [Example 267, 2-methylpropyl [(2R,6S,12Z,13aS,14aR,16aS)-9′-(difluoromethoxy)-5′-methyl-14a-{[(1-methylcyclopropyl)sulfonyl]carbamoyl}-5,16-dioxo-1,1′,2′,5,6,7,8,9,10,11,13a,14,14a,15,16,16a-hexadecahydrospiro[cyclopropa[e]pyrrolo[1,2-a][1,4]diazacyclopentadecine-2,3′-pyrano[2,3-c]quinolin]-6-yl]carbamate] | – | – | 0.006 | 8.45 | – |
| Cc1nc2ccc(OC(F)F)cc2c2c1O[C@]1(CC2)C[C@H]2C(=O)N[C@]3(C(=O)NS(=O)(=O)C4(C)CC4)C[C@H]3/C=C\CCCCC[C@H](NC(=O)OC3CCCC3)C(=O)N2C1 [Example 268, cyclopentyl [(2R,6S,12Z,13aS,14aR,16aS)-9′-(difluoromethoxy)-5′-methyl-14a-{[(1-methylcyclopropyl)sulfonyl]carbamoyl}-5,16-dioxo-1,1′,2′,5,6,7,8,9,10,11,13a,14,14a,15,16,16a-hexadecahydrospiro[cyclopropa[e]pyrrolo[1,2-a][1,4]diazacyclopentadecine-2,3′-pyrano[2,3-c]quinolin]-6-yl]carbamate] | – | – | 0.003 | 8.39 | – |
| COc1ccc2c3c(c(C4CC4)nc2c1)O[C@]1(CC3)C[C@H]2C(=O)N[C@]3(C(=O)NS(=O)(=O)C4(C)CC4)C[C@H]3/C=C\CCCCC[C@H](NC(=O)CC(C)(C)C)C(=O)N2C1 [Example 269, (2R,6S,12Z,13aS,14aR,16a5)-5′-cyclopropyl-6-[(3,3-dimethylbutanoyl)amino]-8′-methoxy-N-[(1-methylcyclopropyl)sulfonyl]-5,16-dioxo-1,1′,2′,6,7,8,9,10,11,13a,14,15,16,16a-tetradecahydrospiro[cyclopropa[e]pyrrolo[1,2-a][1,4]diazacyclopentadecine-2,3′-pyrano[2,3-c]quinoline]-14a(5H)-carboxamide] | – | – | – | – | IC50 ([1]; HCOOH salt): 0.337 nM; pEC50 ([2]; HCOOH salt): 7.92 |
| COc1ccc2c3c(c(C4CC4)nc2c1)O[C@]1(CC3)C[C@H]2C(=O)N[C@]3(C(=O)NS(=O)(=O)C4(C)CC4)C[C@H]3/C=C\CCCCC[C@H](NC(=O)CC3CCCC3)C(=O)N2C1 [Example 270, (2R,6S,12Z,13aS,14aR,16aS)-6-[(cyclopentylacetyl)amino]-5′-cyclopropyl-8′-methoxy-N-[(1-methylcyclopropyl)sulfonyl]-5,16-dioxo-1,1′,2′,6,7,8,9,10,11,13a,14,15,16,16a-tetradecahydrospiro[cyclopropa[e]pyrrolo[1,2-a][1,4]diazacyclopentadecine-2,3′-pyrano[2,3-c]quinoline]-14a(5H)-carboxamide] | – | – | – | – | IC50 ([1]; HCOOH salt): 0.044 nM; pEC50 ([2]; HCOOH salt): 7.62 |
| CCCOC(=O)N[C@H]1CCCCC/C=C\[C@@H]2C[C@@]2(C(=O)NS(=O)(=O)C2(C)CC2)NC(=O)[C@@H]2C[C@]3(CCc4c(c(C5CC5)nc5cc(OC)ccc45)O3)CN2C1=O [Example 271, propyl [(2R,6S,12Z,13aS,14aR,16aS)-5′-cyclopropyl-8′-methoxy-14a-{[(1-methylcyclopropyl)sulfonyl]carbamoyl}-5,16-dioxo-1,1′,2′,5,6,7,8,9,10,11,13a,14,14a,15,16,16a-hexadecahydrospiro[cyclopropa[e]pyrrolo[1,2-a][1,4]diazacyclopentadecine-2,3′-pyrano[2,3-c]quinolin]-6-yl]carbamate] | – | – | – | – | IC50 ([1]; HCOOH salt): 0.031 nM; pEC50 ([2]; HCOOH salt): 8.23 |
